From patent publication US20230106174A1, “RAS INHIBITORS” (Revolution Medicines, Inc., priority 2021, published 2023)
Read-outs that look alike come from different tables or passages of the source. One block for each compound: values may come before it.

Tests used:
[1] = target: T1, K-Ras G12C (Homo sapiens, UniProt P01116+P62937, G12C); assay: pERK potency assay in NCI-H358 cells (AlphaLISA SureFire or In-Cell Western); type: cell-based; settings: 4 hours incubation
T1 construct: endogenous in cells; host or cells: NCI-H358
Experimental: The purpose of this assay was to measure the ability of test compounds to inhibit K-Ras in cells. […] This procedure measures a decrease in cellular pERK in response to test compounds. The procedure described below in NCI-H358 cells is applicable to K-Ras G12C. […]
NCI-H358 cells were grown and maintained using media and procedures recommended by the ATCC. On the day prior to compound addition, cells were plated in 384-well cell culture plates (40 μl/well) and grown overnight in a 37° C., 5% CO2 incubator. Test compounds were prepared in 10, 3-fold dilutions in DMSO, with a high concentration of 10 mM. On the day of assay, 40 nL of test compound was added to each well of cell culture plate using an Echo550 liquid handler (LabCyte®). Concentrations of test compound were tested in duplicate. After compound addition, cells were incubated 4 hours at 37° C., 5% CO2. Following incubation, culture medium was removed and cells were washed once with phosphate buffered saline.
In some experiments, cellular pERK level was determined using the AlphaLISA SureFire Ultra p-ERK1/2 Assay Kit (PerkinElmer). Cells were lysed in 25 μL lysis buffer, with shaking at 600 RPM at room temperature. Lysate (10 μL) was transferred to a 384-well Opti-plate (PerkinElmer) and 5 μL acceptor mix was added. After a 2-hour incubation in the dark, 5 μL donor mix was added, the plate was sealed, and incubated 2 hours at room temperature. Signal was read on an Envision plate reader (PerkinElmer) using standard AlphaLISA settings. Analysis of raw data was carried out in Excel (Microsoft) and Prism (GraphPad). Signal was plotted vs. the decadal logarithm of compound concentration, and IC50 was determined by fitting a 4-parameter sigmoidal concentration response model.
In other experiments, cellular pERK was determined by In-Cell Western. Following compound treatment, cells were washed twice with 200 μL tris buffered saline (TBS) and fixed for 15 minutes with 150 μL 4% paraformaldehyde in TBS. Fixed cells were washed 4 times for 5 minutes with TBS containing 0.1% Triton X-100 (TBST) and then blocked with 100 μL Odyssey blocking buffer (LI-COR) for 60 minutes at room temperature. […] Cells were washed 4 times for 5 minutes with TBST. Secondary antibody (IR-800CW rabbit, LI-COR, diluted 1:800) and DNA stain DRAQ5 (LI-COR, diluted 1:2000) were added and incubated 1-2 hours at room temperature. Cells were washed 4 times for 5 minutes with TBST. Plates were scanned on a Li—COR Odyssey CLx Imager. Analysis of raw data was carried out in Excel (Microsoft) and Prism (GraphPad). Signal was plotted vs. the decadal logarithm of compound concentration, and IC50 was determined by fitting a 4-parameter sigmoidal concentration response model.

[2] = tested on: NCI-H358 (K-Ras G12C); assay: CellTiter-Glo cell viability assay, 5-day treatment, NCI-H358; type: cell-based; settings: Homo sapiens, NCI-H358, 120 h
Source text: Determination of Cell Viability in RAS Mutant Cancer Cell Lines
Protocol: CellTiter-Glo® Cell Viability Assay
Note—The following protocol describes a procedure for monitoring cell viability of K-Ras mutant cancer cell lines in response to a compound of the invention. Other RAS isoforms may be employed, though the number of cells to be seeded will vary based on cell line used.
The purpose of this cellular assay was to determine the effects of test compounds on the proliferation of three human cancer cell lines (NCI-H358 (K-Ras G12C), AsPC-1 (K-Ras G12D), and Capan-1 (K-Ras G12V)) over a 5-day treatment period by quantifying the amount of ATP present at endpoint using the CellTiter-Glo® 2.0 Reagent (Promega).
Cells were seeded at 250 cells/well in 40 μL of growth medium in 384-well assay plates and incubated overnight in a humidified atmosphere of 5% CO2 at 37° C. On the day of the assay, 10 mM stock solutions of test compounds were first diluted into 3 mM solutions with 100% DMSO. Well-mixed compound solutions (15 μL) were transferred to the next wells containing 30 μL of 100% DMSO, and repeated until a 9-concentration 3-fold serial dilution was made (starting assay concentration of 10 μM). Test compounds (132.5 nL) were directly dispensed into the assay plates containing cells. The plates were shaken for 15 seconds at 300 rpm, centrifuged, and incubated in a humidified atmosphere of 5% CO2 at 37° C. for 5 days. On day 5, assay plates and their contents were equilibrated to room temperature for approximately 30 minutes. CellTiter-Glo® 2.0 Reagent (25 μL) was added, and plate contents were mixed for 2 minutes on an orbital shaker before incubation at room temperature for 10 minutes. Luminescence was measured using the PerkinElmer Enspire. Data were normalized by the following: (Sample signal/Avg. DMSO)*100. The data were fit using a four-parameter logistic fit.

T1 sequence (P01116 1-188 isoform P01116-2 G12C): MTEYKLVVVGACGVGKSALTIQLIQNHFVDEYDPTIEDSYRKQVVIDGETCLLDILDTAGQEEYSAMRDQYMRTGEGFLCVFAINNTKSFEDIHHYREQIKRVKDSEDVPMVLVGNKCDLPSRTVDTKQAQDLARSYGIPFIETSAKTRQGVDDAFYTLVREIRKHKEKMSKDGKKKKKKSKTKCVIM
T1 sequence (P62937 whole entry): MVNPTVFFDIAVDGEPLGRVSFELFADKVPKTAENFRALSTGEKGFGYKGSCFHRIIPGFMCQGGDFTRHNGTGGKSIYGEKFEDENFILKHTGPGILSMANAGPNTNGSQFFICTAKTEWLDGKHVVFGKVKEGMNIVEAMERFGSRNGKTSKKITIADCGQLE

SMILES: C=CCOC(=O)N[C@H]1Cc2nc(no2)-c2ccc3c(c2)c(c(-c2cccnc2[C@H](C)OC)n3CC)CC(C)(C)COC(=O)[C@@H]2CCCN(N2)C1=O
ring closure, yield of all isomers (from C=CCOC(=O)NC(Cc1nc(-c2ccc3c(c2)c(CC(C)(C)COC(=O)[C@@H]2CCCNN2)c(-c2cccnc2[C@H](C)OC)n3CC)no1)C(=O)O, amide bond, HATU/DIPEA, DCM, 139.0 mM, 25.0 °C, 16.0 h): 33%

SMILES: CCn1c(-c2cc(N3CCN(C(=O)OCc4ccccc4)CC3)cnc2[C@H](C)OC)c2c3cc(ccc31)-c1csc(n1)C[C@H](NC(=O)OC(C)(C)C)C(=O)N1CCC[C@H](N1)C(=O)OCC(C)(C)C2
ring closure, yield of all isomers (from CCn1c(-c2cc(N3CCN(C(=O)OCc4ccccc4)CC3)cnc2[C@H](C)OC)c(CC(C)(C)CO)c2cc(-c3csc(C[C@H](NC(=O)OC(C)(C)C)C(=O)N4CCC[C@@H](C(=O)O)N4)n3)ccc21, ester bond, EDCI/HOBt/DIEA, MeCN, 10.3 mM, 25.0 °C, 16.0 h): 54.8%

SMILES: CCn1c(-c2cc(N3CCN4CCCC[C@@H]4C3)cnc2[C@H](C)OC)c2c3cc(ccc31)-c1cccc(c1)C[C@H](NC(=O)OC(C)(C)C)C(=O)N1CCC[C@H](N1)C(=O)OCC(C)(C)C2
ring closure, yield of all isomers (from CCn1c(-c2cc(N3CCN4CCCC[C@@H]4C3)cnc2[C@H](C)OC)c(CC(C)(C)CO)c2cc(-c3cccc(C[C@H](NC(=O)OC(C)(C)C)C(=O)N4CCC[C@@H](C(=O)O)N4)c3)ccc21, ester bond, EDCI/HOBt/DIPEA, DCM, 11.3 mM, 25.0 °C, 16.0 h): 62%

SMILES: CCn1c(-c2cccnc2[C@H](C)OC)c2c3cc(ccc31)-c1nc(no1)C[C@H](NC(=O)OC(C)(C)C)C(=O)N1CCC[C@H](N1)C(=O)OCC(C)(C)C2
ring closure, yield of all isomers (from CCn1c(-c2cccnc2[C@H](C)OC)c(CC(C)(C)CO)c2cc(-c3nc(C[C@H](NC(=O)OC(C)(C)C)C(=O)N4CCC[C@@H](C(=O)O)N4)no3)ccc21, ester bond, EDCI/HOBT/DIPEA, DCM, 6.8 mM, 25.0 °C, 16.0 h): 18%

SMILES: CO[C@@H](C)c1ncccc1-c1c2c3cc(ccc3n1CC(F)(F)F)-c1coc(n1)C[C@H](NC(=O)OCc1ccccc1)C(=O)N1CCC[C@H](N1)C(=O)OCC(C)(C)C2
ring closure, yield of all isomers (from CO[C@@H](C)c1ncccc1-c1c(CC(C)(C)COC(=O)[C@@H]2CCCNN2)c2cc(-c3coc(C[C@H](NC(=O)OCc4ccccc4)C(=O)O)n3)ccc2n1CC(F)(F)F, amide bond, EDCI/HOBt/DIPEA, DCM, 6.06 mM, 25.0 °C, 16.0 h): 21%

SMILES: CO[C@@H](C)c1ncccc1-c1c2c3cc(ccc3n1CC(F)(F)F)C1CCCN(C1)C[C@H](NC(=O)OC(C)(C)C)C(=O)N1CCC[C@H](N1)C(=O)OCC(C)(C)C2
ring closure, yield of all isomers (from CO[C@@H](C)c1ncccc1-c1c(CC(C)(C)CO)c2cc(C3CCCN(C[C@H](NC(=O)OC(C)(C)C)C(=O)N4CCC[C@@H](C(=O)O)N4)C3)ccc2n1CC(F)(F)F, ester bond, EDCI/HOBT/DIPEA, DCM, 6.2 mM, 25.0 °C): 17%

SMILES: CO[C@@H](C)c1ncccc1-c1c2c3cc(ccc3n1CC(F)(F)F)C1CCN(C1)C[C@H](NC(=O)OC(C)(C)C)C(=O)N1CCC[C@H](N1)C(=O)OCC(C)(C)C2
ring closure, yield of all isomers (from CO[C@@H](C)c1ncccc1-c1c(CC(C)(C)CO)c2cc(C3CCN(C[C@H](NC(=O)OC(C)(C)C)C(=O)N4CCC[C@@H](C(=O)O)N4)C3)ccc2n1CC(F)(F)F, ester bond, EDCI/HOBt/DIPEA, DCM, 6.97 mM, 25.0 °C, 16.0 h): 21%

SMILES: CO[C@@H](C)c1ncccc1-c1c2c3cc(ccc3n1CC(F)(F)F)C1CN(C1)C[C@H](NC(=O)OC(C)(C)C)C(=O)N1CCC[C@H](N1)C(=O)OCC(C)(C)C2
ring closure, yield of all isomers (from CO[C@@H](C)c1ncccc1-c1c(CC(C)(C)CO)c2cc(C3CN(C[C@H](NC(=O)OC(C)(C)C)C(=O)N4CCC[C@@H](C(=O)O)N4)C3)ccc2n1CC(F)(F)F, ester bond, EDCI/HOBt/DIPEA, DCM, 6.45 mM, 30.0 °C, 16.0 h): 37%

IC50 [1]: > 1000 nM
SMILES: C=CC(=O)N1CCOC2(CCN(C(=O)N(C)[C@H](C(=O)N[C@H]3Cc4cncc(n4)-c4ccc5c(c4)c(c(-c4cccnc4[C@H](C)OC)n5CC)CC(C)(C)COC(=O)[C@@H]4CCCN(N4)C3=O)C(C)C)CC2)C1 (atropisomer, axis not shown) [Example A36]

IC50 [1]: > 1000 nM
SMILES: C=CC(=O)N1COC2(CCN(C(=O)N(C)[C@H](C(=O)N[C@H]3CC4=NC=C(O4)c4ccc5c(c4)c(c(-c4cccnc4[C@H](C)OC)n5CC)CC(C)(C)COC(=O)[C@@H]4CCCN(N4)C3=O)C(C)C)CC2)C1 (atropisomer, axis not shown) [Example A37]

IC50 [1]: > 1000 nM
IC50 [2]: > 1000 nM
SMILES: C=CC(=O)N1CCN(CC)C2(CCN(C(=O)N(C)[C@H](C(=O)N[C@H]3C[C@H]4CN(CCO4)c4ccc5c(c4)c(c(-c4cccnc4[C@H](C)OC)n5CC)CC(C)(C)COC(=O)[C@@H]4CCCN(N4)C3=O)C(C)C)CC2)C1 (atropisomer, axis not shown) [Example A38]

IC50 [2]: > 1000 nM
SMILES: CCn1c(-c2cccnc2[C@H](C)OC)c2c3cc(ccc31)-c1cc(C(F)F)cc(n1)C[C@H](NC(=O)[C@H](C(C)C)N(C)C(=O)N1CCC3(CCN(C(=O)/C=C/CN(C)C)C3)CC1)C(=O)N1CCC[C@H](N1)C(=O)OCC(C)(C)C2 (atropisomer, axis not shown) [Example A39]

IC50 [1]: > 1000 nM
SMILES: C=CC(=O)N1CC2(CCN(C(=O)N(C)[C@H](C(=O)N[C@H]3C[C@H]4CN(CCO4)c4ccc5c(c4)c(c(-c4cccnc4[C@H](C)OC)n5CC)CC(C)(C)COC(=O)[C@@H]4CCCN(N4)C3=O)C(C)C)CC2)C1 (atropisomer, axis not shown) [Example A121]

IC50 [1]: > 1000 nM
SMILES: C=CC(=O)N1CCOC2(CCN(C(=O)N(C)[C@H](C(=O)N[C@H]3Cc4cncc(c4)-c4ccc5c(c4)c(c(-c4cccnc4[C@H](C)OC)n5CC)CC(C)(C)COC(=O)[C@@H]4CCCN(N4)C3=O)C(C)C)CC2)C1 (atropisomer, axis not shown) [Example A124]

IC50 [1]: > 1000 nM
IC50 [2]: > 1000 nM
SMILES: CCn1c(-c2cccnc2[C@H](C)OC)c2c3cc(ccc31)N1CCO[C@@H](C[C@H](NC(=O)[C@H](C(C)C)N(C)C(=O)N3CCC4(CC3)CN(C(=O)/C=C/CF)C4)C(=O)N3CCC[C@H](N3)C(=O)OCC(C)(C)C2)C1 (atropisomer, axis not shown) [Example A128]

IC50 [1]: > 890 nM
SMILES: C=CC(=O)N1CCOC2(CCN(C(=O)N(C)[C@H](C(=O)N[C@H]3C[C@@]4(C)CN(CCO4)c4ccc5c(c4)c(c(-c4cccnc4[C@H](C)OC)n5CC)CC(C)(C)COC(=O)[C@@H]4CCCN(N4)C3=O)C(C)C)CC2)C1 (atropisomer, axis not shown) [Example A130]

IC50 [1]: > 1000 nM
SMILES: C=CC(=O)N1CCOC2(C1)CN(C(=O)N(C)[C@H](C(=O)N[C@H]1C[C@H]3CN(CCO3)c3ccc4c(c3)c(c(-c3cccnc3[C@H](C)OC)n4CC)CC(C)(C)COC(=O)[C@@H]3CCCN(N3)C1=O)C(C)C)C2 (atropisomer, axis not shown) [Example A136]

IC50 [1]: > 1000 nM
SMILES: C=CC(=O)N1CCN(C)C2(CCN(C(=O)N(C)[C@H](C(=O)N[C@H]3C[C@H]4CN(CCO4)c4ccc5c(c4)c(c(-c4cccnc4[C@H](C)OC)n5CC)CC(C)(C)COC(=O)[C@@H]4CCCN(N4)C3=O)C(C)C)CC2)C1 (atropisomer, axis not shown) [Example A189]
